Measurements as given in ChEMBL document CHEMBL1909046, “DrugMatrix in vitro pharmacology data”.
pIC50, pKi: −log10 of the molar value.

Legend:
Progesterone receptor = target: T1, Progesterone receptor (Bos taurus, UniProt Q690N0); assay: DRUGMATRIX: Progesterone radioligand binding (ligand: [3H] R-5020); assay type: tissue-based, Uterus; conditions: Not Active = under 50% inhibition at 10 µM
T1 sequence (Q690N0 whole entry): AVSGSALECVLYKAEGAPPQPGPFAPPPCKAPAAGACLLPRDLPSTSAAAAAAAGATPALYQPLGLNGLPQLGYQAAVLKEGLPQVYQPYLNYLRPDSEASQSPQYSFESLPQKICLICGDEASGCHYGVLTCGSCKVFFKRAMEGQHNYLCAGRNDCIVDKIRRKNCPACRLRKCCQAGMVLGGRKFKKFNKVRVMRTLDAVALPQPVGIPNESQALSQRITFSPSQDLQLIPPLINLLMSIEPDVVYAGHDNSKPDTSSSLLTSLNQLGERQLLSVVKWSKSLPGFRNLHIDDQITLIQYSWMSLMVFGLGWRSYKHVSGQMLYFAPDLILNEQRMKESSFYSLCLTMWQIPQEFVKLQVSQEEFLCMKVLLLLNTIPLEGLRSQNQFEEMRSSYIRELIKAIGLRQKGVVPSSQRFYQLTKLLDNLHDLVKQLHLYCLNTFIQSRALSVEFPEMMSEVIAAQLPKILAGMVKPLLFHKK

[1] = DRUGMATRIX: GABAA, Flunitrazepam, Central radioligand binding (ligand: [3H] Flunitrazepam); assay type: cell membranes, Rattus norvegicus, Wistar, Brain, Membrane; conditions: Not Active = under 50% inhibition at 10 µM
[2] = target: T2, C-X-C chemokine receptor type 2 (Homo sapiens, UniProt P25025); assay type: cell membranes, Membrane; conditions: cho-k1; further: in other assays of this panel Not Active means under 50% inhibition at 10 µM
T2 sequence (P25025 whole entry): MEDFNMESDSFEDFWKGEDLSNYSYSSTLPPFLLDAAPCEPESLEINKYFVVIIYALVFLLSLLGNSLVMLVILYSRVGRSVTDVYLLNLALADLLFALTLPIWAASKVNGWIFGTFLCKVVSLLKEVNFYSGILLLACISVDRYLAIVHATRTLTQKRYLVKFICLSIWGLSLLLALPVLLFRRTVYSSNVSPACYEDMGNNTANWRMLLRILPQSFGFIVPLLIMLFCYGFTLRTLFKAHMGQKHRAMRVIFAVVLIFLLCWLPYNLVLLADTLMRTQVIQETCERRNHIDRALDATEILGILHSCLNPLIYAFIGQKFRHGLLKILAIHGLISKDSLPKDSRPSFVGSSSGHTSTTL

Carbonic anhydrase 2 = Carbonic anhydrase 2 (Homo sapiens, UniProt P00918); assay: DRUGMATRIX: Carbonic Anhydrase II enzyme inhibition (substrate: 4-Nitrophenyl acetate (4-NPA)); assay type: tissue-based, Erythrocyte; conditions: erythrocyte; Not Active = under 50% inhibition at 10 µM
[3] = target: T3, Neuropeptide Y receptor type 2 (Homo sapiens, UniProt P49146); assay type: cell membranes, Membrane; conditions: kan-ts; further: in other assays of this panel Not Active means under 50% inhibition at 10 µM
T3 sequence (P49146 whole entry): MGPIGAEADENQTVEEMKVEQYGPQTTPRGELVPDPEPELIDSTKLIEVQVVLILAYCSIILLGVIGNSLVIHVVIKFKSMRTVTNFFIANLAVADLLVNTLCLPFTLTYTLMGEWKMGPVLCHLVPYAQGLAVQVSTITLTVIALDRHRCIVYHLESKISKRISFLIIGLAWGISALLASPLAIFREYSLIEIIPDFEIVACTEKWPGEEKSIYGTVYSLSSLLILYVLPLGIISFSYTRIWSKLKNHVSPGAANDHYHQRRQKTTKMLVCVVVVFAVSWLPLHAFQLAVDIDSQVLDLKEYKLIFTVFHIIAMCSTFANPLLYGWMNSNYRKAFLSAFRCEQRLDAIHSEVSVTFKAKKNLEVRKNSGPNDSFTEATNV

[4] = target: 5-hydroxytryptamine receptor 2B (Homo sapiens, UniProt P41595); assay type: cell membranes, CHO-K1, Membrane; conditions: for IC50: cho-k1; for pIC50: read-out: IC50; for pKi: read-out: Ki; on all read-outs here: in other assays of this panel Not Active means under 50% inhibition at 10 µM
Sequence of 5-hydroxytryptamine receptor 2B (P41595 whole entry): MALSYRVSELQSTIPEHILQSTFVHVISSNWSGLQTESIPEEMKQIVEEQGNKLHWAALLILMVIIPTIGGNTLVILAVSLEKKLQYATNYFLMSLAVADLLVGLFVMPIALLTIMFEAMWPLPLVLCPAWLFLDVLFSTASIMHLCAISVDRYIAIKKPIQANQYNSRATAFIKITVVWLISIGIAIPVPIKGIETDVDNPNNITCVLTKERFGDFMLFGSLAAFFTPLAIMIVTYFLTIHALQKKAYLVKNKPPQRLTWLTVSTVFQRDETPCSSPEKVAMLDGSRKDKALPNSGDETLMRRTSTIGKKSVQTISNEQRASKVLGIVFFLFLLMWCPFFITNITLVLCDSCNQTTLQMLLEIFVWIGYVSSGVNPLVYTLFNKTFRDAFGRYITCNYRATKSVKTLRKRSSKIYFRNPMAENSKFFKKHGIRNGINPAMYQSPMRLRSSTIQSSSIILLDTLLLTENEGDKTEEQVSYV

O=c1ncn2nc(Sc3ccc(F)cc3F)ccc2c1-c1c(Cl)cccc1Cl [NEFLAMAPIMOD]
5.01: pKi ([1]; read-out: Ki)
4.92: pIC50 ([1]; read-out: IC50)
Not Active: IC50 (Progesterone receptor) | IC50 [2] | IC50 (Carbonic anhydrase 2) | IC50 [3] | IC50 [4]

CN1CCN(CCCN2c3ccccc3Sc3ccc(Cl)cc32)CC1 [PROCHLORPERAZINE]
Not Active: IC50 (Progesterone receptor) | IC50 [2] | IC50 (Carbonic anhydrase 2) | IC50 [3]

CO[C@H]1/C=C/O[C@@]2(C)Oc3c(C)c(O)c4c(O)c(c(/C=N/N5CCN(C)CC5)c(O)c4c3C2=O)NC(=O)/C(C)=C\C=C\[C@H](C)[C@H](O)[C@@H](C)[C@@H](O)[C@@H](C)[C@H](OC(C)=O)[C@@H]1C [RIFAMPIN]
Not Active: IC50 (Progesterone receptor) | IC50 [1] | Ki [1] | IC50 [2] | IC50 (Carbonic anhydrase 2) | IC50 [3] | IC50 [4]

Nc1nc2ccc(OC(F)(F)F)cc2s1 [RILUZOLE]
Not Active: IC50 (Progesterone receptor) | IC50 [1] | Ki [1] | IC50 [2] | IC50 (Carbonic anhydrase 2) | IC50 [3] | IC50 [4]

Cc1nc2n(c(=O)c1CCN1CCC(c3noc4cc(F)ccc34)CC1)CCCC2 [RISPERIDONE]
Not Active: IC50 (Progesterone receptor) | IC50 [2] | IC50 (Carbonic anhydrase 2) | IC50 [3]

C=CCC1(C(C)CCC)C(=O)NC(=O)NC1=O (stereo not given) [SECOBARBITAL]
Not Active: IC50 (Progesterone receptor) | IC50 [1] | Ki [1] | IC50 [2] | IC50 (Carbonic anhydrase 2) | IC50 [3] | IC50 [4]

C[C@@H]1CN(c2c(F)c(N)c3c(=O)c(C(=O)O)cn(C4CC4)c3c2F)C[C@H](C)N1 [SPARFLOXACIN]
Not Active: IC50 (Progesterone receptor) | IC50 [1] | Ki [1] | IC50 [2] | IC50 (Carbonic anhydrase 2) | IC50 [3] | IC50 [4]

Cc1noc(NS(=O)(=O)c2ccc(N)cc2)c1C [SULFISOXAZOLE]
Not Active: IC50 (Progesterone receptor) | IC50 [1] | Ki [1] | IC50 [2] | IC50 (Carbonic anhydrase 2) | IC50 [3] | IC50 [4]

CSc1ccc(/C=C2/C(C)=C(CC(=O)O)c3cc(F)ccc32)cc1 [SULINDAC SULFIDE]
Not Active: IC50 (Progesterone receptor) | IC50 [1] | Ki [1] | IC50 [2] | IC50 (Carbonic anhydrase 2) | IC50 [3] | IC50 [4]

Nc1c2c(nc3ccccc13)CCCC2 [TACRINE]
Not Active: IC50 (Progesterone receptor) | IC50 [1] | Ki [1] | IC50 [2] | IC50 (Carbonic anhydrase 2) | IC50 [3] | IC50 [4]

CC/C(=C(\c1ccccc1)c1ccc(OCCN(C)C)cc1)c1ccccc1 [TAMOXIFEN]
5.88: pKi [4]
4.70: pIC50 (Progesterone receptor; read-out: IC50)
5.59: pKi (Progesterone receptor; read-out: Ki)
5.68: pIC50 [4]
Not Active: IC50 [2] | IC50 (Carbonic anhydrase 2) | IC50 [3]

CC(C)N1CCN(c2ccc(OCC3COC(Cn4cncn4)(c4ccc(Cl)cc4Cl)O3)cc2)CC1 (stereo not given) [TERCONAZOLE]
Not Active: IC50 (Progesterone receptor) | IC50 [1] | Ki [1] | IC50 [2] | IC50 (Carbonic anhydrase 2) | IC50 [3] | IC50 [4]

Nc1nc2nc[nH]c2c(=S)[nH]1 [THIOGUANINE]
Not Active: IC50 (Progesterone receptor) | IC50 [1] | Ki [1] | IC50 [2] | IC50 (Carbonic anhydrase 2) | IC50 [3] | IC50 [4]

Cc1cccc(N(C)C(=S)Oc2ccc3ccccc3c2)c1 [TOLNAFTATE]
Not Active: IC50 (Progesterone receptor) | IC50 [1] | Ki [1] | IC50 [2] | IC50 (Carbonic anhydrase 2) | IC50 [3]
5.70: pIC50 [4]
5.89: pKi [4]

NC[C@H]1CC[C@H](C(=O)O)CC1 [TRANEXAMIC ACID]
Not Active: IC50 (Progesterone receptor) | IC50 [1] | Ki [1] | IC50 [2] | IC50 (Carbonic anhydrase 2) | IC50 [3] | IC50 [4]
